Experimental data taken from US20120093752A1, “Use of Monoamine Oxidase Inhibitors to Improve Epithelial Biology” (priority 2010, published 2012).
Entries after “also recorded” stand apart in the source; their conditions may differ. Counter-ions that a name gives are not always drawn.

Columns and labels:
[1] = tested on: follicles in telogen; assay: Telogen Conversion Assay (TCA), visual melanogenesis grade as indicator of hair growth; format: in vivo, C57Bl/6 mice; settings: topical; for hair growth induction in vivo (FIG. 1): compound alone; for hair growth induction in vivo (FIG. 1) / Activity (improved hair growth by inducing anagen): 19 days, C57Bl/6 mice; for timing of hair growth induction: C57BL/6 mice, selegiline 1% or Triac 0.06%, 32 days, FIG. 2
Description: The skin color of mice subjected to treatment is graded visually on a scale from zero to four (0=white skin; 1=light gray skin; 2=blue/black spots; 3=large blue/black region; 4=mostly blue/black skin). As a subject transitions from telogen to anagen, the skin color becomes darker.
Triac (0.06%) was administered as a positive control. Animals were scored for hair growth on the basis of melanogenesis during the treatment period.

[2] = tested on: MAOB; assay: MAOB production in mice administered hair growth modulators; format: in vivo
[3] = tested on: follicles in telogen; assay: Hair growth induction (visual melanogenesis grades) in C3H mice; format: in vivo; settings: topical, selegiline 1% or Triac 0.06%, 32 days
Description: Several MAO inhibitors were tested for the ability to improve hair growth using the Telogen Conversion Assay (TCA) described in, e.g., International Patent Publication No. 2000/73265. […] The skin color of mice subjected to treatment is graded visually on a scale from zero to four (0=white skin; 1=light gray skin; 2=blue/black spots; 3=large blue/black region; 4=mostly blue/black skin). As a subject transitions from telogen to anagen, the skin color becomes darker.
The potential of selegiline to induce hair growth in different mouse strains also was studied. Selegiline (1%) was topically administered to a C3H mice and C57BL/6 mice. Triac (0.06%) was used as a positive control. […] Both strains of mice also responded to the MAO inhibitor; however, the strains responded in a manner consistent with natural inter-strain differences in transitioning to anagen. The telogen phase in C3H mice is longer than telogen in C57BL/6 mice.

## C#CCN(C)CCCOc1ccc(Cl)cc1Cl [Clorgiline]
[1]
  hair growth induction in vivo (FIG. 1): induced significant hair growth
[1]; dose 1%
  Activity (improved hair growth by inducing anagen): YES

## C[C@]12CCC(=O)C[C@@H]1CC[C@@H]1[C@@H]2CC[C@]2(C)[C@@H](O)CC[C@@H]12 [DHT, dihydrotestosterone]
[2]; C57Bl/6 mice, 12.5 mg/day subcutaneous continuous release pellet
  MAOB levels: increased greater than two fold

## NCCNC(=O)c1ccc(Cl)cn1 [Lazabemide]
[1]
  hair growth induction in vivo (FIG. 1): not shown to induce hair growth alone

## C#CCN(C)Cc1ccccc1 [Pargyline HCL]
[1]
  hair growth induction in vivo (FIG. 1): induced significant hair growth
[1]; dose 1%
  Activity (improved hair growth by inducing anagen): YES

## NNCCc1ccccc1 [Phenelzine]
[1]
  hair growth induction in vivo (FIG. 1): induced significant hair growth
[1]; dose 0.5%
  Activity (improved hair growth by inducing anagen): YES

## C#CCN[C@@H]1CCc2ccccc21 [Rasagiline mesylate]
[1]
  hair growth induction in vivo (FIG. 1): Robust hair growth induction
[1]; dose 1%
  Activity (improved hair growth by inducing anagen): YES

## C#CCN(C)[C@H](C)Cc1ccccc1 [Selegiline Hydrochloride]
[1]; Hydrochloride
  timing of hair growth induction: induced hair regrowth significantly earlier; also recorded: initiated hair growth significantly sooner than treatment with vehicle
[1]
  hair growth induction in vivo (FIG. 1): Robust hair growth induction
[1]; dose 1%
  Activity (improved hair growth by inducing anagen): YES
[3]; FIG. 2, Hydrochloride
  timing of hair growth induction: induced hair regrowth significantly earlier; also recorded: initiated hair growth significantly sooner than treatment with vehicle

## O=C(O)Cc1cc(I)c(Oc2ccc(O)c(I)c2)c(I)c1 [Triac, Triiodothyroacetic Acid]
[1]
  timing of hair growth induction: hair growth was induced at the same time for both mouse strains; also recorded: induced hair growth simultaneously
[3]; FIG. 2
  timing of hair growth induction: hair growth was induced at the same time for both mouse strains; also recorded: induced hair growth simultaneously
[2]; C3H mice, 0.06%
  MAOB levels: Reduced MAOB levels
